Reference: publication PMC5218480 (PLoS ONE, 2017)

Test system: MV-4-11 cells
Test: Gene expression microarray analysis (Affymetrix PrimeView) and GSEA
Type: cell-based, human
Design: RFU PODN (11730768_x_at) / Fold change /veh PODN (11730768_x_at) / RFU LINC00158 (11744669_a_at) / Fold change /veh LINC00158 (11744669_a_at) / RFU DUSP10 (11751237_a_at) / Fold change /veh DUSP10 (11751237_a_at) / RFU ID3 (11757404_x_at) / Fold change /veh ID3 (11757404_x_at) / RFU PLEKHG5 (11737974_s_at) / Fold change /veh PLEKHG5 (11737974_s_at) / RFU LRRC4B (11730491_at) / Fold change /veh LRRC4B (11730491_at) / RFU GIMAP4 (11747438_a_at) / Fold change /veh GIMAP4 (11747438_a_at) / RFU KRT8 (11758183_x_at) / Fold change /veh KRT8 (11758183_x_at) / RFU CNN1 (11734310_a_at) / Fold change /veh CNN1 (11734310_a_at) / RFU VPS37D (11726825_at) / Fold change /veh VPS37D (11726825_at) / RFU C10orf10 (11716522_x_at) / Fold change /veh C10orf10 (11716522_x_at) / RFU KIR2DL2 /// KIR2DL4 /// KIR2DL5A /// KIR2DL5B /// KIR2DS1 /// KIR2DS2 /// KIR2DS3 /// KIR2DS4 /// KIR3DL3 /// KIR3DL3 /// KIR3DS1 (11738374_at) / Fold change /veh KIR2DL2 /// KIR2DL4 /// KIR2DL5A /// KIR2DL5B /// KIR2DS1 /// KIR2DS2 /// KIR2DS3 /// KIR2DS4 /// KIR3DL3 /// KIR3DL3 /// KIR3DS1 (11738374_at) / RFU C1QL1 (11718748_at) / Fold change /veh C1QL1 (11718748_at) / RFU TMPRSS4 (11747572_a_at) / Fold change /veh TMPRSS4 (11747572_a_at) / RFU HAMP (11756126_x_at) / Fold change /veh HAMP (11756126_x_at) / RFU RNFT2 (11725882_a_at) / Fold change /veh RNFT2 (11725882_a_at) / RFU NR4A2 (11747474_a_at) / Fold change /veh NR4A2 (11747474_a_at) / RFU ABCC12 (11746883_a_at) / Fold change /veh ABCC12 (11746883_a_at) / RFU TMEM136 (11760407_x_at) / Fold change /veh TMEM136 (11760407_x_at) / RFU CLDN22 /// WWC2 (11732394_at) / Fold change /veh CLDN22 /// WWC2 (11732394_at) / RFU HLA-DPB1 (11760878_x_at) / Fold change /veh HLA-DPB1 (11760878_x_at) / RFU SPINT1 (11716480_a_at) / Fold change /veh SPINT1 (11716480_a_at) / RFU GAP43 (11754022_s_at) / Fold change /veh GAP43 (11754022_s_at) / RFU A4GNT (11735810_at) / Fold change /veh A4GNT (11735810_at) / RFU PRB3 (11715151_x_at) / Fold change /veh PRB3 (11715151_x_at) / RFU TUBB4B (11761932_at) / Fold change /veh TUBB4B (11761932_at) / RFU CAPN14 (11732068_a_at) / Fold change /veh CAPN14 (11732068_a_at) / RFU TMCC2 (11721928_a_at) / Fold change /veh TMCC2 (11721928_a_at) / RFU IRGQ (11745062_a_at) / Fold change /veh IRGQ (11745062_a_at) / RFU FAM174B (11720279_a_at) / Fold change /veh FAM174B (11720279_a_at) / RFU TMPRSS4 (11748680_a_at) / Fold change /veh TMPRSS4 (11748680_a_at) / RFU FAM212B (11763350_a_at) / Fold change /veh FAM212B (11763350_a_at) / RFU PLEKHG5 (11743358_a_at) / Fold change /veh PLEKHG5 (11743358_a_at) / RFU ZSCAN30 (11745921_a_at) / Fold change /veh ZSCAN30 (11745921_a_at) / RFU CMKLR1 (11741424_a_at) / Fold change /veh CMKLR1 (11741424_a_at) / RFU LOC101060620 /// MAPK8IP1 (11723275_at) / Fold change /veh LOC101060620 /// MAPK8IP1 (11723275_at) / RFU SPTSSB (11747773_x_at) / Fold change /veh SPTSSB (11747773_x_at) / RFU PRSS12 (11739890_at) / Fold change /veh PRSS12 (11739890_at) / RFU BIN1 (11741810_x_at) / Fold change /veh BIN1 (11741810_x_at) / RFU WNT11 (11732464_a_at) / Fold change /veh WNT11 (11732464_a_at) / RFU C10orf10 (11716521_a_at) / Fold change /veh C10orf10 (11716521_a_at) / RFU C5orf56 (11738089_at) / Fold change /veh C5orf56 (11738089_at) / RFU CYB561 (11721691_x_at) / Fold change /veh CYB561 (11721691_x_at) / RFU ANKRD19P (11752326_a_at) / Fold change /veh ANKRD19P (11752326_a_at) / RFU OR2T12 /// OR2T33 /// OR2T8 (11738714_s_at) / Fold change /veh OR2T12 /// OR2T33 /// OR2T8 (11738714_s_at) / RFU VCAN (11748164_a_at) / Fold change /veh VCAN (11748164_a_at) / RFU JSRP1 (11732532_at) / Fold change /veh JSRP1 (11732532_at) / RFU KRTAP10-11 (11738290_x_at) / Fold change /veh KRTAP10-11 (11738290_x_at) / RFU MYO3A (11730013_a_at) / Fold change /veh MYO3A (11730013_a_at) / RFU EBF3 (11725865_a_at) / Fold change /veh EBF3 (11725865_a_at) / RFU CAMK2N1 (11719241_x_at) / Fold change /veh CAMK2N1 (11719241_x_at) / RFU C5orf56 (11738088_a_at) / Fold change /veh C5orf56 (11738088_a_at) / RFU OLFML3 (11715873_a_at) / Fold change /veh OLFML3 (11715873_a_at) / RFU LOC100653217 /// NTM (11731650_a_at) / Fold change /veh LOC100653217 /// NTM (11731650_a_at) / RFU MAPK11 (11762145_a_at) / Fold change /veh MAPK11 (11762145_a_at) / RFU FIZ1 (11724087_x_at) / Fold change /veh FIZ1 (11724087_x_at) / RFU OASL (11726364_x_at) / Fold change /veh OASL (11726364_x_at) / RFU SOX15 (11748057_x_at) / Fold change /veh SOX15 (11748057_x_at) / RFU CD79A (11719716_a_at) / Fold change /veh CD79A (11719716_a_at) / RFU HIST1H1D (11736915_at) / Fold change /veh HIST1H1D (11736915_at) / RFU CASKIN2 (11723855_a_at) / Fold change /veh CASKIN2 (11723855_a_at) / RFU LOC730098 (11760151_x_at) / Fold change /veh LOC730098 (11760151_x_at) / RFU OR4N2 (11742367_at) / Fold change /veh OR4N2 (11742367_at) / RFU PRRT2 (11749266_a_at) / Fold change /veh PRRT2 (11749266_a_at) / RFU SNX32 (11753110_a_at) / Fold change /veh SNX32 (11753110_a_at) / RFU CDHR5 (11726645_a_at) / Fold change /veh CDHR5 (11726645_a_at) / RFU RCAN1 (11760418_a_at) / Fold change /veh RCAN1 (11760418_a_at) / RFU FAM167A (11723789_a_at) / Fold change /veh FAM167A (11723789_a_at) / RFU FAM26E (11764081_at) / Fold change /veh FAM26E (11764081_at) / RFU ISYNA1 (11749810_s_at) / Fold change /veh ISYNA1 (11749810_s_at) / RFU ACY1 (11761880_at) / Fold change /veh ACY1 (11761880_at) / RFU 11764098_at / Fold change /veh 11764098_at / RFU SAMD14 (11745864_x_at) / Fold change /veh SAMD14 (11745864_x_at) / RFU NPB (11741838_a_at) / Fold change /veh NPB (11741838_a_at) / RFU TMPRSS6 (11731388_a_at) / Fold change /veh TMPRSS6 (11731388_a_at) / RFU KRTAP10-2 (11738614_at) / Fold change /veh KRTAP10-2 (11738614_at) / RFU ARHGAP8 /// PRR5-ARHGAP8 (11727945_x_at) / Fold change /veh ARHGAP8 /// PRR5-ARHGAP8 (11727945_x_at) / RFU KRTAP5-7 /// NADSYN1 (11734609_at) / Fold change /veh KRTAP5-7 /// NADSYN1 (11734609_at) / RFU RASL12 (11751679_a_at) / Fold change /veh RASL12 (11751679_a_at) / RFU CDKN2B (11736163_a_at) / Fold change /veh CDKN2B (11736163_a_at) / RFU PRF1 (11729649_at) / Fold change /veh PRF1 (11729649_at) / RFU, ZNF638 /// ZNF638-IT1 / Fold change vs veh, ZNF638 /// ZNF638-IT1 / RFU, PANK3 / Fold change vs veh, PANK3 / RFU, SH3YL1 / Fold change vs veh, SH3YL1 / RFU, ZEB2 / Fold change vs veh, ZEB2 / RFU, NRIP1 / Fold change vs veh, NRIP1 / RFU, PTTG1IP / Fold change vs veh, PTTG1IP / RFU, CAPN2 / Fold change vs veh, CAPN2 / RFU, MED14 / Fold change vs veh, MED14 / RFU, SNORA58 / Fold change vs veh, SNORA58 / RFU, C1orf63 / Fold change vs veh, C1orf63 / RFU, LRRFIP1 / Fold change vs veh, LRRFIP1 / RFU, NDUFAF7 / Fold change vs veh, NDUFAF7 / RFU, SLC12A2 / Fold change vs veh, SLC12A2 / RFU, IBTK / Fold change vs veh, IBTK / RFU, ESF1 / Fold change vs veh, ESF1 / Fold change vs veh, TMEM50B / RFU, TAOK1 / Fold change vs veh, TAOK1 / RFU, ACBD3 / Fold change vs veh, ACBD3 / RFU, TMA16 / Fold change vs veh, TMA16 / RFU, RWDD3 / Fold change vs veh, RWDD3 / RFU, BCAT1 / Fold change vs veh, BCAT1 / RFU, EDEM3 / Fold change vs veh, EDEM3 / RFU, TMEM33 / Fold change vs veh, TMEM33 / RFU, WDR75 / Fold change vs veh, WDR75 / RFU, AHCTF1 / Fold change vs veh, AHCTF1 / RFU, TFRC / Fold change vs veh, TFRC / RFU, ZDHHC17 / Fold change vs veh, ZDHHC17 / RFU, NOM1 / Fold change vs veh, NOM1 / RFU, ARL8B / Fold change vs veh, ARL8B / RFU, ZBTB11 / Fold change vs veh, ZBTB11 / RFU, TAMM41 / Fold change vs veh, TAMM41 / RFU, KIAA1704 /// LOC100996395 / Fold change vs veh, KIAA1704 /// LOC100996395 / RFU, ING1 / Fold change vs veh, ING1 / RFU, TRMT61B / Fold change vs veh, TRMT61B / RFU, FUBP3 / Fold change vs veh, FUBP3 / RFU, TP53 / Fold change vs veh, TP53 / RFU, TNKS2 / Fold change vs veh, TNKS2 / RFU, ZFP14 / Fold change vs veh, ZFP14 / RFU, ACTR2 / Fold change vs veh, ACTR2 / RFU, PPP3R1 / Fold change vs veh, PPP3R1 / RFU, PIK3R1 / Fold change vs veh, PIK3R1 / RFU, HNRNPA1 / Fold change vs veh, HNRNPA1 / RFU, RNF170 / Fold change vs veh, RNF170 / RFU, ZNF28 / Fold change vs veh, ZNF28 / RFU, RNGTT / Fold change vs veh, RNGTT / RFU, OGT / Fold change vs veh, OGT / RFU, BRD1 / Fold change vs veh, BRD1 / RFU, MARS / Fold change vs veh, MARS / RFU, ZNF655 / Fold change vs veh, ZNF655 / RFU, FAHD1 / Fold change vs veh, FAHD1 / RFU, BDP1 / Fold change vs veh, BDP1 / RFU, LRRCC1 / Fold change vs veh, LRRCC1 / RFU, ARID1A / Fold change vs veh, ARID1A / RFU, ZNF146 / Fold change vs veh, ZNF146 / RFU, ZNF330 / Fold change vs veh, ZNF330 / RFU, GPN3 / Fold change vs veh, GPN3 / RFU, C9orf123 / Fold change vs veh, C9orf123 / RFU, N4BP2L2 / Fold change vs veh, N4BP2L2 / RFU, ARFIP1 / Fold change vs veh, ARFIP1 / RFU, FAM179B / Fold change vs veh, FAM179B / RFU, BCL10 / Fold change vs veh, BCL10 / RFU, UHRF1BP1L / Fold change vs veh, UHRF1BP1L / RFU, BET1 / Fold change vs veh, BET1 / RFU, CNOT2 / Fold change vs veh, CNOT2 / RFU, ZNF268 / Fold change vs veh, ZNF268 / Fold change vs veh, ZNF507 / RFU, DGCR2 / Fold change vs veh, DGCR2 / RFU, WDSUB1 / Fold change vs veh, WDSUB1 / Fold change vs veh, HSP90B1 /// MIR3652 / RFU, ADSS / Fold change vs veh, ADSS / RFU, GK / Fold change vs veh, GK / RFU, ZNF148 / Fold change vs veh, ZNF148 / RFU, TAF9 / Fold change vs veh, TAF9 / RFU, SLC1A5 / Fold change vs veh, SLC1A5 / RFU, SLMO2 / Fold change vs veh, SLMO2 / RFU, ABCC4 / Fold change vs veh, ABCC4 / RFU, LOC101060439 /// RAP1B / Fold change vs veh, LOC101060439 /// RAP1B / RFU, RFX7 / Fold change vs veh, RFX7 / RFU, GTPBP10 / Fold change vs veh, GTPBP10 / RFU, CNEP1R1 / Fold change vs veh, CNEP1R1 / RFU, BIVM-ERCC5 /// ERCC5 / Fold change vs veh, BIVM-ERCC5 /// ERCC5 / RFU, ILF3 / Fold change vs veh, ILF3 / RFU 11762660_at / Fold change /veh 11762660_at / RFU VCAN (11757783_s_at) / Fold change /veh VCAN (11757783_s_at) / RFU DDX43 (11728927_at) / Fold change /veh DDX43 (11728927_at) / RFU KRT8 (11758188_x_at) / Fold change /veh KRT8 (11758188_x_at) / RFU NKD1 (11759106_at) / Fold change /veh NKD1 (11759106_at) / RFU SRD5A1 (11742802_a_at) / Fold change /veh SRD5A1 (11742802_a_at) / RFU TPSAB1 /// TPSB2 (11721975_s_at) / Fold change /veh TPSAB1 /// TPSB2 (11721975_s_at) / RFU GSTM3 (11746129_a_at) / Fold change /veh GSTM3 (11746129_a_at) / RFU IL23R (11737362_x_at) / Fold change /veh IL23R (11737362_x_at) / RFU TMEM51 (11727254_a_at) / Fold change /veh TMEM51 (11727254_a_at) / RFU PIWIL2 (11732686_x_at) / Fold change /veh PIWIL2 (11732686_x_at) / RFU ORM1 (11744905_x_at) / Fold change /veh ORM1 (11744905_x_at) / RFU CCDC152 (11743942_at) / Fold change /veh CCDC152 (11743942_at) / RFU ECM1 (11717891_a_at) / Fold change /veh ECM1 (11717891_a_at) / RFU IL23R (11748794_a_at) / Fold change /veh IL23R (11748794_a_at) / RFU TNFAIP8L3 (11732012_x_at) / Fold change /veh TNFAIP8L3 (11732012_x_at) / RFU MBOAT4 (11741988_at) / Fold change /veh MBOAT4 (11741988_at) / RFU 11764193_at / Fold change /veh 11764193_at / RFU TMEM53 (11763286_at) / Fold change /veh TMEM53 (11763286_at) / RFU MAGEB2 (11727129_at) / Fold change /veh MAGEB2 (11727129_at) / RFU TMEM200A (11744735_a_at) / Fold change /veh TMEM200A (11744735_a_at) / RFU CCDC152 (11751479_a_at) / Fold change /veh CCDC152 (11751479_a_at) / RFU FAM211A (11726209_a_at) / Fold change /veh FAM211A (11726209_a_at) / RFU RGS16 (11746705_a_at) / Fold change /veh RGS16 (11746705_a_at) / RFU VCAN (11755009_s_at) / Fold change /veh VCAN (11755009_s_at) / RFU RHOB (11743442_s_at) / Fold change /veh RHOB (11743442_s_at) / RFU RGS16 (11720943_a_at) / Fold change /veh RGS16 (11720943_a_at) / RFU RGS16 (11720944_at) / Fold change /veh RGS16 (11720944_at) / RFU, VPS4B / Fold change vs veh, VPS4B / RFU, CREB1 / Fold change vs veh, CREB1 / RFU, DNAJC13 / Fold change vs veh, DNAJC13 / RFU, GNAQ / Fold change vs veh, GNAQ / RFU, CDK5R1 / Fold change vs veh, CDK5R1 / RFU, ZRANB3 / Fold change vs veh, ZRANB3 / RFU, CUL4A / Fold change vs veh, CUL4A / RFU, CCNY / Fold change vs veh, CCNY / RFU, UFL1 / Fold change vs veh, UFL1 / RFU, COG3 / Fold change vs veh, COG3 / RFU, DIAPH2 / Fold change vs veh, DIAPH2 / RFU, SKA2 / Fold change vs veh, SKA2 / RFU, AFF3 / Fold change vs veh, AFF3 / RFU, LMF1 / Fold change vs veh, LMF1 / RFU, IPO11 / Fold change vs veh, IPO11 / RFU, DFFB / Fold change vs veh, DFFB / RFU, FOXP1 / Fold change vs veh, FOXP1 / RFU, CARD8 / Fold change vs veh, CARD8 / RFU, STRN3 / Fold change vs veh, STRN3 / RFU, ADK / Fold change vs veh, ADK / RFU, RASSF2 / Fold change vs veh, RASSF2 / RFU, WIPF1 / Fold change vs veh, WIPF1 / RFU, LARP1B / Fold change vs veh, LARP1B / RFU, RASA1 / Fold change vs veh, RASA1 / RFU, RB1 / Fold change vs veh, RB1 / RFU, PPFIA1 / Fold change vs veh, PPFIA1 / RFU, MAT2A / Fold change vs veh, MAT2A / RFU, CCT5 / Fold change vs veh, CCT5 / RFU, WDR92 / Fold change vs veh, WDR92 / RFU, CUX1 / Fold change vs veh, CUX1 / RFU, TTC7A / Fold change vs veh, TTC7A / RFU, TMEM135 / Fold change vs veh, TMEM135 / RFU, DEPTOR / Fold change vs veh, DEPTOR / RFU, CPM / Fold change vs veh, CPM / RFU, DNAJB6 / Fold change vs veh, DNAJB6 / RFU, CACNA2D3 / Fold change vs veh, CACNA2D3 / RFU, DTX4 / Fold change vs veh, DTX4 / RFU, TFCP2 / Fold change vs veh, TFCP2 / RFU, GMCL1 /// GMCL1P1 / Fold change vs veh, GMCL1 /// GMCL1P1 / RFU, AEBP2 / Fold change vs veh, AEBP2 / RFU, SNHG1 /// SNORD22 /// SNORD25 /// SNORD26 /// SNORD27 /// SNORD28 /// SNORD29 /// SNORD31 / Fold change vs veh, SNHG1 /// SNORD22 /// SNORD25 /// SNORD26 /// SNORD27 /// SNORD28 /// SNORD29 /// SNORD31 / Fold change (Aza/veh), C12orf56 (ProbeSet 11735607_a_at) / Fold change (ACY-1035/veh), C12orf56 (ProbeSet 11735607_a_at) / Fold change (Aza/veh), FGFR1OP (ProbeSet 11751329_s_at) / Fold change (ACY-1035/veh), FGFR1OP (ProbeSet 11751329_s_at) / Fold change (Aza/veh), VPS36 (ProbeSet 11739960_a_at) / Fold change (ACY-1035/veh), VPS36 (ProbeSet 11739960_a_at) / RFU SYPL1 (11715823_x_at) / Fold change /veh SYPL1 (11715823_x_at) / RFU IGFBP7 (11715501_s_at) / Fold change /veh IGFBP7 (11715501_s_at) / RFU REEP3 (11722064_at) / Fold change /veh REEP3 (11722064_at) / RFU IGLL1 (11728026_x_at) / Fold change /veh IGLL1 (11728026_x_at): dose or concentration left out as unconfirmed
Settings: MV-4-11 cells, 48 hours

Nc1ccc(-c2cccs2)cc1NC(=O)c1ccc2c(c1)cc(C1CC1)n2CCN1CCOCC1 [ACY-1035]
RFU RNFT2 (11725882_a_at): 13.97 RFU
